How the values were obtained:
[1] = tested on: hES cells of the H1 or H9 line
Procedure: hES cells of the H1 or H9 line being cultured as embryoid bodies were treated at differentiation day 1-4,4-6 or 6-8 with 5-aza-deoxy-cytidine, a cytosine analog that affects DNA methylation, thereby activating gene expression. Cells were harvested at day 15, and analyzed for cardiac α-MHC by real-time RT-PCR.
The RT-PCR assay from Example 3 was adapted for the Taqman™ 7700 sequence detection system using the same primers, amplifying for 40 cycles at 95° C. for 15 sec and 60° C. for 1 min. 18S ribosomal RNA was amplified for a control using a kit for Taqman™ ribosomal RNA control reagents (Applied Biosystems). Reactions were analyzed by ABI Prism™ 7700 Sequence Detection system.
Other reagents examined for an ability to induce cardiomyocyte differentiation included dimethyl sulfoxide (DMSO) and all-trans retinoic acid (RA).
Retinoic acid was applied to differentiating hES cultures at doses between 10^−9 and 10^−[…].

[2] = tested on: hES cells of the H7 line; test: Direct differentiation paradigm without embryoid body stage; type: cell-based, human; conditions: 10 μM at day 10-12 or 12-14
Procedure: Cardiomyocyte differentiation was also achieved in a direct differentiation paradigm. Undifferentiated hES cells of the H7 line were dissociated and plated directly onto gelatin-coated plates without going through an embryoid body stage. The plated cells were cultured in differentiation medium (80% KO-DMEM, 1 mM L-glutamine, 0.1 mM p-mercaptoethanol, 1% amino acids, and 20% fetal bovine serum). Contracting cardiomyocytes were found at day 18 in cultures treated with 10 μM 5-aza-deoxy-cytidine at day 10-12 or 12-14, and at later times in all cultures.

[3] = tested on: cardiomyogenic cell line from bone marrow stroma; conditions: treated for 24 hours; cited from earlier work
[4] = tested on: mouse ES cells; conditions: Wobus et al. 1997; cited from earlier work
[5] = tested on: hES-derived cardiomyocytes; test: Pharmacological response: contraction rate of beating areas; type: cell-based, human; conditions: for chronotropic effect: FIG. 5 Panels B-E
Procedure: EBs were plated on to gelatin-coated 24-well plates and allowed to differentiate, as in Example 2. Contracting cardiomyocytes at differentiation day 15-21 were used for examining pharmacological response. The frequency of the spontaneous beating was measured by counting the contraction rate of the beating areas maintained in the differentiation medium in a 37° C. heating chamber of an inverted microscope. The cells were then incubated with test compounds in the incubator for 20-30 min, and observed for contraction rate. Dose-dependent effects were determined by cumulatively applying of increasing concentrations of each substrate. Data represent the mean pulsation rate±standard error of the mean measured on 10-20 beating areas.
Differentiated cells were incubated with various concentrations of the drug and the number of beats per minute was counted. The cells were then washed with medium, maintained in differentiation medium for 24 h and observed for the time taken to recover contractility.

For Nc1ncn([C@H]2C[C@H](O)[C@@H](CO)O2)c(=O)n1 [5-aza-deoxy-cytidine], the “expression of cardiac α-MHC” value ([1]; 1 to 10 μM at day 6-8, harvested day 15) was “significantly increased” and the “day at which contracting cardiomyocytes were found” value [2] was 18 days.

For Nc1ncn([C@@H]2O[C@H](CO)[C@@H](O)[C@H]2O)c(=O)n1 [5-azacytidine], the “cells forming myotube-like structures, acquiring cardiomyocyte markers and beginning to beat” value [3] is listed as 30%.

For C[S+](C)[O-] [DMSO, dimethyl sulfoxide], the “toxicity to the cells” value [1] was “toxic”, the “beating areas compared with non-treated cultures” value ([1]; 0.5%, days 0-4) was “fewer beating areas” and the beating cells ([1]; 0.8% or 1%) was “absent”. For the same compound, the “α-MHC expression compared with untreated cultures” value ([1]; DMSO treatment) was “significant reduction”.

In the case of CC1=C(/C=C/C(C)=C/C=C/C(C)=C/C(=O)O)C(C)(C)CCC1 [RA, all-trans retinoic acid], the “beating cells compared with untreated cultures” value ([1]; days 4-8, 8-15, or 4-15, doses between 10^−9 and 10^−5 μM) is listed as “no increase” and the “effect on cardiac differentiation” value [4] is listed as “accelerates ES cell-derived cardiac differentiation”.

For CC(C)(C)NCC(O)c1cc(Cl)c(N)c(Cl)c1 (centres unmarked) [clenbuterol], the “beating rate after treatment” value ([5]; cells taken at Day 72, 1-10 nM, from about 72 beats/min, p<0.005) was “about 98 beats/min”.

With COc1ccc([C@@H]2Sc3ccccc3N(CCN(C)C)C(=O)[C@@H]2OC(C)=O)cc1 [diltiazem] the “beating areas that stopped contraction” value ([5]; 10^−5 M) was 100% and the “inhibition of beating rate” value ([5]; differentiation day 15-21, 20-30 min incubation, increasing concentrations) was “concentration-dependent manner”.

With CC(C)NCC(O)c1ccc(O)c(O)c1 (centres unmarked) [isoprenaline] the chronotropic effect [5] was “positive chronotropic effects”.

In the case of CNC[C@H](O)c1cccc(O)c1 [phenylephrine], the chronotropic effect [5] was “positive chronotropic effects”.

Source: patent publication US20050214938A1, “Cardiac bodies: clusters of spontaneously contracting cells for regenerating cardiac function” (priority 2004, published 2005)
